Where two headings read alike, the source gives them in different places.
Columns and labels:
TK6 cells = experiment: In vitro micronucleus assay in TK6 cells; assay type: cell-based; conditions: 27 hours recovery
Experimental: The micronucleus assay may be used to determine if a compound is genotoxic by evaluating the presence of micronuclei. Micronuclei may contain chromosome fragments produced from DNA breakage (clastogens) or whole chromosomes produced by disruption of the mitotic apparatus (aneugens).
Example 1 was assessed in the bacterial reverse mutation assay (Ames) and in vitro micronucleus assay. All in vitro tests were conducted with and without exogenous metabolic activation using concentrations up to those limited by cytotoxicity or insolubility.
Induction of chromosome damage was assessed using the in vitro micronucleus assay in TK6 cells. Example 1 was negative for induction of micronuclei when incubated for 3 hours in the presence of exogenous metabolic activation followed by 27 hours recovery, and also when incubated for 27 hours in the absence of exogenous metabolic activation followed by 27 hours recovery.

[1] = test system: T1, UCHL1, USP1, USP2, USP6, USP9x, USP10, USP15, USP16, USP20, USP21, USP22, USP25, USP28, USP35, USP36, USP46/UAF1; experiment: DUB biochemical IC50 assays (off-target panel); conditions: each of UCHL1, USP1, USP2, USP6, USP9x, USP10, USP15, USP16, USP20, USP21, USP22, USP25, USP28, USP35, USP36, USP46/UAF1; read-out: IC50 (μM) against DUB panel
T1 construct: other: each of UCHL1, USP1, USP2, USP6, USP9x, USP10, USP15, USP16, USP20, USP21, USP22, U

[2] = test system: T2, cathepsins B, K, L, S and V; experiment: Cathepsin IC50, summary over B, K, L, S, V; assay type: biochemical; conditions: range over the five cathepsins
T2 construct: Cathepsin IC50 (μM) B, K, L, S, V; other: range over the five cathepsins

UUO injured kidneys = experiment: UUO model of tubulointerstitial fibrosis; assay type: in vivo, C57BL/6 mice; conditions: 10 days
Source text: (a) Bleomycin-induced lung fibrosis model, which is a leading preclinical in vivo model of Idiopathic Pulmonary Fibrosis. [Kobayashi et al, 2016, J Immunol, 197(2):504-516] (b) Diet-induced model of NAFLD and glucose homeostasis. [Nishida et al, 2013, Lab Invest; February; 93(2):230-41] (c) MPTP Model of Parkinson's Disease, which is a commonly used paradigm for looking at neurodegeneration in the dopaminergic system of the brain which is triggered by chemically-induced mitochondrial dysfunction. [Karuppagouner et al, 2014, Sci Rep. 2014 May 2; 4:4874] (d) Ndufs4KO Leigh syndrome model. [Kruse et al, 2008, Cell Metab. April; 7(4):312-20] (e) Aged rodent model: effects on hippocampal, cognitive and motor function. [Kobilo et al, 2014, Learn Mem. January 17; 21(2):119-26; Creed et al, 2019, Neuroscience. June 15; 409:169-179; Van Skike et al, 2020, Aging Cell. 19; e13057]. Example 1 was assessed in this model. (f) UUO causes renal injury characterised by tubular cell injury, interstitial inflammation and fibrosis. It serves as a model of irreversible post-renal acute kidney injury (AKI). […]
Example 1 was assessed in the UUO model to determine the ability of the compound to attenuate progressive tubulointerstitial fibrosis and chronic kidney disease (CKD). […]

5-HT2b = target: T3, 5-HT2b (Homo sapiens, UniProt P41595); experiment: Eurofins CEREP SafetyScreen44 panel, 5-HT2b; assay type: binding
T3 construct: purchased Eurofins CEREP (contract screening panel) SafetyScreen44
T3 sequence (P41595 whole entry): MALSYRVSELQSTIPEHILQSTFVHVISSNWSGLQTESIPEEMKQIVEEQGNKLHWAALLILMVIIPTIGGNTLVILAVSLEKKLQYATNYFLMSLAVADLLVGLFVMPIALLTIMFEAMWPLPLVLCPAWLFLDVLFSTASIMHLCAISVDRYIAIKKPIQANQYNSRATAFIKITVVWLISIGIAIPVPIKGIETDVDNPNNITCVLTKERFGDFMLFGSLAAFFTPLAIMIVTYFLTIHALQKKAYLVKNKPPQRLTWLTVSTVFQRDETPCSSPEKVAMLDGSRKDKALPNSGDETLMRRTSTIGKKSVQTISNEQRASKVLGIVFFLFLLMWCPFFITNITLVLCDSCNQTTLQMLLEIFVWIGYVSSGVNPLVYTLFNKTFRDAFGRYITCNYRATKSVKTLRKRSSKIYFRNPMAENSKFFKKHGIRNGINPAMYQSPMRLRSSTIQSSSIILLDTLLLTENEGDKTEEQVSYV
Source text: Example 2 was subject to pharmacological profiling in the Eurofins CEREP SafetyScreen44 panel.

[3] = test system: T4, UCHL1, USP1, USP2, USP6, USP9x, USP10, USP15, USP16, USP20, USP21, USP22, USP25, USP28, USP35, USP36, USP46/UAF1; experiment: DUB biochemical IC50 assays (off-target panel); conditions: each of UCHL1, USP1, USP9x, USP10, USP15, USP16, USP20, USP21, USP22, USP25, USP28, USP35, USP36, USP46/UAF1; read-out: IC50 (μM) against DUB panel
T4 construct: other: each of UCHL1, USP1, USP9x, USP10, USP15, USP16, USP20, USP21, USP22, USP25, USP28

Structure (SMILES) | induction of micronuclei (TK6 cells; 3 hours in the presence of exogenous metabolic activation) | induction of micronuclei (TK6 cells; 27 hours in the absence of exogenous metabolic activation) | IC50 [1] [µM] | IC50 [2] [µM] | α-SMA levels in UUO injured kidneys v vehicle treated controls (UUO injured kidneys; 15, 5 and 1.5 mg/kg oral BID) | collagen deposition (picrosirius red staining) in ligated kidneys (UUO injured kidneys; 15, 5 and 1.5 mg/kg p.o. BID) | inhibition at 10 µM (5-HT2b) [%] | IC50 [3] [µM]
COC[C@@H]1C[C@@H](NC(=O)c2ncc(-c3cccc(OC(F)(F)F)c3)o2)CN1C#N [Example 1, N-((3R,5S)-1-Cyano-5-(methoxymethyl)pyrrolidin-3-yl)-5-(3-(trifluoromethoxy)phenyl)oxazole-2-carboxamide] | negative | negative | ≥ 4.4 | 16.5 to 158 | statistical reduction in α-SMA levels | statistically reduced collagen deposition | – | –
C[C@@H]1C[C@@H](NC(=O)c2ncc(-c3cccc(OC(F)(F)F)c3)o2)CN1C#N [Example 2, N-((3R,5R)-1-Cyano-5-methylpyrrolidin-3-yl)-5-(3-(trifluoromethoxy)phenyl)oxazole-2-carboxamide] | – | – | – | ≥ 8.5 | – | – | 32 | ≥ 4.7
